Measured values reported in PubChem BioAssay AID330 (DTP/NCI, 2004).
Toxic doses and inconclusive results are not listed.

System: P388 leukemia ip, CD2F1 mice, survival T/C
Assay: NCI In Vivo Anticancer Drug Screen. Data for tumor model P388 Leukemia (intraperitoneal) in CD2F1 (CDF1) mice
Conditions: endpoint: median survival time, higher = longer survival
How it was run: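 Mice carrying the transplanted tumor received test compound or vehicle. Survival was recorded in each group, and the value is the treated-group measurement divided by that of the vehicle-treated control group.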

[1] = dose: 100.0 mg/kg/injection, schedule: Q04DX003 (ip), vehicle: saline
[2] = dose: 50.0 mg/kg/injection, schedule: Q01DX009 (ip), vehicle: saline with Tween-80
[3] = dose: 100.0 mg/kg/injection, schedule: Q01DX009 (ip), vehicle: saline with Tween-80
[4] = dose: 200.0 mg/kg/injection, schedule: Q01DX009 (ip), vehicle: saline with Tween-80

Cc1cc2ccccc2c[n+]1[O-]
T/C (dose: 50.0 mg/kg/injection, schedule: Q01DX005 (ip), vehicle: Klucel (hydroxypropylcellulose) (HPC)): 97 % of control | T/C (dose: 100.0 mg/kg/injection, schedule: Q01DX005 (ip), vehicle: Klucel (hydroxypropylcellulose) (HPC)): 112 % of control

Cc1ccc2nc(Nc3nc(C)cc(C)n3)[nH]c2c1
T/C (dose: 60.0 mg/kg/injection, schedule: Q01DX005 (ip), vehicle: Klucel (hydroxypropylcellulose) (HPC)): 103 % of control | T/C (dose: 120.0 mg/kg/injection, schedule: Q01DX005 (ip), vehicle: Klucel (hydroxypropylcellulose) (HPC)): 100 % of control | T/C (dose: 240.0 mg/kg/injection, schedule: Q01DX005 (ip), vehicle: Klucel (hydroxypropylcellulose) (HPC)): 97 % of control

Clc1ccccc1Nc1c2ccccc2nc2ccccc12
T/C [1]: 100 % of control | T/C (dose: 132.0 mg/kg/injection, schedule: Q04DX003 (ip), vehicle: suspension in saline): 108 % of control | T/C (dose: 200.0 mg/kg/injection, schedule: Q04DX003 (ip), vehicle: suspension in saline): 110 % of control | T/C (dose: 300.0 mg/kg/injection, schedule: Q04DX003 (ip), vehicle: suspension in saline): 115 % of control | T/C (dose: 400.0 mg/kg/injection, schedule: Q04DX003 (ip), vehicle: saline): 104 % of control

S=C(Oc1ccccc1)SSC(=S)Oc1ccccc1
T/C (dose: 25.0 mg/kg/injection, schedule: Q04DX003 (ip), vehicle: saline with Tween-80): 114 % of control | T/C (dose: 50.0 mg/kg/injection, schedule: Q04DX003 (ip), vehicle: saline with Tween-80): 104 % of control | T/C (dose: 100.0 mg/kg/injection, schedule: Q04DX003 (ip), vehicle: DMSO): 90 % of control | T/C (dose: 100.0 mg/kg/injection, schedule: Q04DX003 (ip), vehicle: saline with Tween-80): 96 % of control | T/C (dose: 200.0 mg/kg/injection, schedule: Q04DX003 (ip), vehicle: saline with Tween-80): 107 % of control

O=C(Nc1ccc(NC(=O)c2ccc(C3=NCCCN3)cc2)cc1)c1ccc(C2=NCCCN2)cc1
T/C (dose: 12.5 mg/kg/injection, schedule: Q01DX009 (ip), vehicle: saline): 168 % of control | T/C (dose: 12.5 mg/kg/injection, schedule: Q04DX003 (ip), vehicle: saline with Tween-80): 118 % of control | T/C (dose: 25.0 mg/kg/injection, schedule: Q01DX009 (ip), vehicle: saline): 250 % of control | T/C (dose: 50.0 mg/kg/injection, schedule: Q01DX009 (ip), vehicle: saline): 163 % of control

CN(Cc1ccccc1)CC(CCC1OCCO1)(CCC1OCCO1)c1ccccc1
T/C (dose: 50.0 mg/kg/injection, schedule: Q01DX009 (ip), vehicle: Klucel (hydroxypropylcellulose) (HPC)): 96 % of control | T/C (dose: 100.0 mg/kg/injection, schedule: Q01DX009 (ip), vehicle: Klucel (hydroxypropylcellulose) (HPC)): 91 % of control

COc1ccc(NS(=O)(=O)c2ccc(N=Cc3c4ccccc4nc4cc(Cl)ccc34)cc2)nn1
T/C (dose: 60.0 mg/kg/injection, schedule: Q01DX005 (ip), vehicle: saline with Tween-80): 91 % of control | T/C (dose: 120.0 mg/kg/injection, schedule: Q01DX005 (ip), vehicle: saline with Tween-80): 90 % of control | T/C (dose: 240.0 mg/kg/injection, schedule: Q01DX005 (ip), vehicle: saline with Tween-80): 87 % of control

COC(=O)C1CCCC(C(=O)O)C1 (stereo unspecified)
T/C (dose: 100.0 mg/kg/injection, schedule: Q01DX002 (ip), vehicle: saline with Tween-80): 102 % of control | T/C (dose: 200.0 mg/kg/injection, schedule: Q01DX002 (ip), vehicle: saline with Tween-80): 102 % of control | T/C (dose: 400.0 mg/kg/injection, schedule: Q01DX002 (ip), vehicle: saline with Tween-80): 117 % of control

CC(=O)OC(C)C1CC2C=C(C(N)=O)C1N(Cc1ccccc1)C2 (stereo unspecified)
T/C (dose: 8.75 mg/kg/injection, schedule: Q01DX005 (ip), vehicle: Klucel (hydroxypropylcellulose) (HPC)): 97 % of control | T/C (dose: 17.5 mg/kg/injection, schedule: Q01DX005 (ip), vehicle: Klucel (hydroxypropylcellulose) (HPC)): 93 % of control | T/C (dose: 35.0 mg/kg/injection, schedule: Q01DX005 (ip), vehicle: Klucel (hydroxypropylcellulose) (HPC)): 97 % of control

CCCCCCOC(=O)c1ccc(I)cc1
T/C [2]: 97 % of control | T/C [3]: 93 % of control | T/C [4]: 100 % of control

COc1ccc2c(c1)CCC1=C2C=C[P+]1(C)C
T/C [2]: 94 % of control

CCCC1OCC(CC)C(CCC)O1 (stereo unspecified)
T/C [3]: 100 % of control | T/C (dose: 100.0 mg/kg/injection, schedule: Q04DX003 (ip), vehicle: saline sonified): 100 % of control | T/C [4]: 100 % of control | T/C (dose: 200.0 mg/kg/injection, schedule: Q04DX003 (ip), vehicle: saline sonified): 109 % of control | T/C (dose: 400.0 mg/kg/injection, schedule: Q01DX009 (ip), vehicle: saline with Tween-80): 91 % of control | T/C (dose: 400.0 mg/kg/injection, schedule: Q04DX003 (ip), vehicle: saline sonified): 109 % of control

CC1NC(C(=O)O)Cc2c1[nH]c1ccccc21 (stereo unspecified)
T/C (dose: 25.0 mg/kg/injection, schedule: Q01DX009 (ip), vehicle: suspension in saline): 105 % of control | T/C (dose: 50.0 mg/kg/injection, schedule: Q01DX009 (ip), vehicle: suspension in saline): 105 % of control | T/C (dose: 50.0 mg/kg/injection, schedule: Q04DX003 (ip), vehicle: saline): 100 % of control | T/C (dose: 100.0 mg/kg/injection, schedule: Q01DX009 (ip), vehicle: suspension in saline): 102 % of control | T/C [1]: 100 % of control | T/C (dose: 200.0 mg/kg/injection, schedule: Q04DX003 (ip), vehicle: saline): 102 % of control
